Assay results: patent US20100267561A1, “HERBICIDAL PYRIDAZINONE DERIVATIVES” (priority 2007, published 2010)

Key:
Assay type in all cases: in vivo
[1] = test system: barnyardgrass (Echinochloa crus-galli); assay: Test B flooded paddy test plant response; conditions: Echinochloa crus-galli, read-out: Plant response rating, Barnyardgrass
How it was run: (§1)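 Step one: raise plants to 2 leaves. Step two: flood pots 3 cm over the soil and apply compound into the water, keeping this depth. Step three: after 13–15 greenhouse days, score visually versus controls, 0–100, where 100 means complete control.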

[2] = test system: rice (Oryza sativa); assay: Test B flooded paddy test plant response; conditions: Oryza sativa, read-out: Plant response rating, Rice
How it was run: as §1

[3] = test system: ducksalad (Heteranthera limosa); assay: Test B flooded paddy test plant response; conditions: Heteranthera limosa, read-out: Plant response rating, Ducksalad
How it was run: as §1

[4] = test system: umbrella sedge (Cyperus difformis); assay: Test B flooded paddy test plant response; conditions: Cyperus difformis, read-out: Plant response rating, Sedge, Umbrella
How it was run: as §1

[5] = test system: large crabgrass (Digitaria sanguinalis); assay: Test B pre-/postemergence plant response; conditions: Preemergence
How it was run: (§2)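 Preemergence and postemergence (plants 2-18 cm, 1- to 4-leaf stage) applications used test chemicals in a non-phytotoxic solvent with surfactant. Plants were held in a greenhouse 13 to 15 days, then rated visually against controls on a 0-100 scale (0 no effect, 100 complete control).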

[6] = test system: wild oat (Avena fatua); assay: Test B pre-/postemergence plant response; conditions: Preemergence
How it was run: as §2

[7] = test system: corn (Zea mays); assay: Test B pre-/postemergence plant response; conditions: Preemergence
How it was run: as §2

[8] = test system: giant foxtail (Setaria faberii); assay: Test B pre-/postemergence plant response; conditions: Preemergence
How it was run: as §2

[9] = test system: Russian thistle (Salsola iberica); assay: Test B pre-/postemergence plant response; conditions: Preemergence
How it was run: as §2

[10] = test system: eastern black (E.B.) nightshade (Solanum ptycanthum); assay: Test B pre-/postemergence plant response; conditions: Preemergence
How it was run: as §2

[11] = test system: downy bromegrass (Bromus tectorum); assay: Test B pre-/postemergence plant response; conditions: Preemergence
How it was run: as §2

[12] = test system: green foxtail (Setaria viridis); assay: Test B pre-/postemergence plant response; conditions: Preemergence
How it was run: as §2

[13] = test system: woolly cupgrass (Eriochloa villosa); assay: Test B pre-/postemergence plant response; conditions: Preemergence
How it was run: as §2

[14] = test system: pigweed (Amaranthus retroflexus); assay: Test B pre-/postemergence plant response; conditions: Preemergence
How it was run: as §2

[15] = Flood (flooded paddy test), 62 g ai/ha, scale 0 to 100, 0 no effect, 100 complete control
[16] = Flood (flooded paddy test), 125 g ai/ha, scale 0 to 100, 0 no effect, 100 complete control
[17] = Flood (flooded paddy test), 250 g ai/ha, scale 0 to 100, 0 no effect, 100 complete control
[18] = Flood, 31 g ai/ha, scale 0 to 100

Cc1cn(-c2ccc(Cl)cc2)nc1-c1c(O)cnn(C)c1=O [Compound 30, 4-[1-(4-chlorophenyl)-4-methyl-1H-pyrazol-3-yl]-5-hydroxy-2-methyl-3(2H)-pyridazinone]
pest or weed control at 62 g/ha [1, 15]: 0% | pest or weed control at 125 g/ha [1, 16]: 0% | pest or weed control at 250 g/ha [1, 17]: 0% | pest or weed control at 31 g/ha [1, 18]: 0% | plant injury at 62 g/ha [2, 15]: 0% | plant injury at 125 g/ha [2, 16]: 0% | plant injury at 250 g/ha [2, 17]: 0% | plant injury at 31 g/ha [2, 18]: 0% | pest or weed control at 62 g/ha [3, 15]: 0% | pest or weed control at 125 g/ha [3, 16]: 0% | pest or weed control at 250 g/ha [3, 17]: 0% | pest or weed control at 31 g/ha [3, 18]: 0% | pest or weed control at 62 g/ha [4, 15]: 0% | pest or weed control at 125 g/ha [4, 16]: 0% | pest or weed control at 250 g/ha [4, 17]: 0% | pest or weed control at 31 g/ha [4, 18]: 0% | pest or weed control at 16 g/ha ([5]; Digitaria sanguinalis, pre-emergence, 16 g ai/ha, scale 0 to 100 (0 no effect, 100 complete control), read-out: Plant response rating, Crabgrass, Large): 90% | pest or weed control at 31 g/ha ([5]; Digitaria sanguinalis, pre-emergence, 31 g ai/ha, 0 to 100 scale, 0 no effect, 100 complete control, read-out: Plant response rating, Crabgrass, Large): 100% | pest or weed control at 62 g/ha ([5]; Digitaria sanguinalis, pre-emergence, 62 g ai/ha, scale 0 to 100, read-out: Plant response rating, Crabgrass, Large): 100% | Crabgrass, Large plant response rating ([5]; 8 g ai/ha, scale 0 to 100): 80 | pest or weed control at 16 g/ha ([6]; Avena fatua, pre-emergence, 16 g ai/ha, scale 0 to 100 (0 no effect, 100 complete control), read-out: Plant response rating, Oat, Wild): 50% | pest or weed control at 31 g/ha ([6]; Avena fatua, pre-emergence, 31 g ai/ha, 0 to 100 scale, 0 no effect, 100 complete control, read-out: Plant response rating, Oat, Wild): 50% | pest or weed control at 62 g/ha ([6]; Avena fatua, pre-emergence, 62 g ai/ha, scale 0 to 100, read-out: Plant response rating, Oat, Wild): 80% | Oat, Wild plant response rating ([6]; 8 g ai/ha, scale 0 to 100): 50 | Corn plant response rating ([7]; 8 g ai/ha, scale 0 to 100): 0 | Corn plant response rating (crop injury, 0 = no effect, 100 = complete kill) at 16 g/ha ([7]; Zea mays, pre-emergence, 16 g ai/ha, scale 0 to 100 (0 no effect, 100 complete control)): 5% | Corn plant response rating (crop injury, 0 = no effect, 100 = complete kill) at 31 g/ha ([7]; Zea mays, pre-emergence, 31 g ai/ha, 0 to 100 scale, 0 no effect, 100 complete control): 5% | Corn plant response rating (crop injury, 0 = no effect, 100 = complete kill) at 62 g/ha ([7]; Zea mays, pre-emergence, 62 g ai/ha, scale 0 to 100): 5% | Foxtail, Giant plant response rating ([8]; 8 g ai/ha, scale 0 to 100): 60 | pest or weed control at 16 g/ha ([8]; Setaria faberi, pre-emergence, 16 g ai/ha, scale 0 to 100 (0 no effect, 100 complete control), read-out: Plant response rating, Foxtail, Giant): 98% | pest or weed control at 31 g/ha ([8]; Setaria faberi, pre-emergence, 31 g ai/ha, 0 to 100 scale, 0 no effect, 100 complete control, read-out: Plant response rating, Foxtail, Giant): 100% | pest or weed control at 62 g/ha ([8]; Setaria faberi, pre-emergence, 62 g ai/ha, scale 0 to 100, read-out: Plant response rating, Foxtail, Giant): 100% | Plant response rating, Russian Thistle ([9]; 16 g ai/ha, scale 0 to 100 (0 no effect, 100 complete control)): 0 | Plant response rating, Russian Thistle ([9]; 31 g ai/ha, 0 to 100 scale, 0 no effect, 100 complete control): 0 | Plant response rating, Russian Thistle ([9]; 62 g ai/ha, scale 0 to 100): 0 | Russian Thistle plant response rating ([9]; 8 g ai/ha, scale 0 to 100): 0 | Nightshade, E. B. plant response rating ([10]; 8 g ai/ha, scale 0 to 100): 0 | pest or weed control at 16 g/ha ([10]; Solanum, pre-emergence, 16 g ai/ha, scale 0 to 100 (0 no effect, 100 complete control), read-out: Plant response rating, Nightshade, E. B.): 0% | pest or weed control at 31 g/ha ([10]; Solanum, pre-emergence, 31 g ai/ha, 0 to 100 scale, 0 no effect, 100 complete control, read-out: Plant response rating, Nightshade, E. B.): 0% | pest or weed control at 62 g/ha ([10]; Solanum, pre-emergence, 62 g ai/ha, scale 0 to 100, read-out: Plant response rating, Nightshade, E. B.): 0% | pest or weed control at 16 g/ha ([11]; Bromus tectorum, pre-emergence, 16 g ai/ha, scale 0 to 100 (0 no effect, 100 complete control), read-out: Plant response rating, Bromegrass, Downy): 10% | pest or weed control at 31 g/ha ([11]; Bromus tectorum, pre-emergence, 31 g ai/ha, 0 to 100 scale, 0 no effect, 100 complete control, read-out: Plant response rating, Bromegrass, Downy): 10% | pest or weed control at 62 g/ha ([11]; Bromus tectorum, pre-emergence, 62 g ai/ha, scale 0 to 100, read-out: Plant response rating, Bromegrass, Downy): 85% | Bromegrass, Downy plant response rating ([11]; 8 g ai/ha, scale 0 to 100): 0 | Foxtail, Green plant response rating ([12]; 8 g ai/ha, scale 0 to 100): 0 | pest or weed control at 16 g/ha ([12]; Setaria viridis, pre-emergence, 16 g ai/ha, scale 0 to 100 (0 no effect, 100 complete control), read-out: Plant response rating, Foxtail, Green): 0% | pest or weed control at 31 g/ha ([12]; Setaria viridis, pre-emergence, 31 g ai/ha, 0 to 100 scale, 0 no effect, 100 complete control, read-out: Plant response rating, Foxtail, Green): 100% | pest or weed control at 62 g/ha ([12]; Setaria viridis, pre-emergence, 62 g ai/ha, scale 0 to 100, read-out: Plant response rating, Foxtail, Green): 100% | pest or weed control at 16 g/ha ([13]; Eriochloa villosa, pre-emergence, 16 g ai/ha, scale 0 to 100 (0 no effect, 100 complete control), read-out: Plant response rating, Cupgrass, Woolly): 75% | pest or weed control at 31 g/ha ([13]; Eriochloa villosa, pre-emergence, 31 g ai/ha, 0 to 100 scale, 0 no effect, 100 complete control, read-out: Plant response rating, Cupgrass, Woolly): 98% | pest or weed control at 62 g/ha ([13]; Eriochloa villosa, pre-emergence, 62 g ai/ha, scale 0 to 100, read-out: Plant response rating, Cupgrass, Woolly): 100% | Cupgrass, Woolly plant response rating ([13]; 8 g ai/ha, scale 0 to 100): 50 | pest or weed control at 16 g/ha ([14]; Amaranthus retroflexus, pre-emergence, 16 g ai/ha, scale 0 to 100 (0 no effect, 100 complete control), read-out: Plant response rating, Pigweed): 0% | pest or weed control at 31 g/ha ([14]; Amaranthus retroflexus, pre-emergence, 31 g ai/ha, 0 to 100 scale, 0 no effect, 100 complete control, read-out: Plant response rating, Pigweed): 0% | pest or weed control at 62 g/ha ([14]; Amaranthus retroflexus, pre-emergence, 62 g ai/ha, scale 0 to 100, read-out: Plant response rating, Pigweed): 0% | Pigweed plant response rating ([14]; 8 g ai/ha, scale 0 to 100): 0
